Results published in US20180312473A1, “PHENAZINE DERIVATIVES AS ANTIMICROBIAL AGENTS” (priority 2015, published 2018).
Converted amounts (≈) assume the structure as drawn. Read-outs that look alike come from different tables or passages of the source.

What was measured:
P. aeruginosa (PAO1) = experiment: MIC assay (broth microdilution, CLSI); type: cell-based; details: Pseudomonas aeruginosa, PAO1; read-out: PAO1 MIC
K. pneumoniae 13883 = experiment: MIC assay (broth microdilution, CLSI); type: cell-based, Klebsiella pneumoniae; details: Klebsiella pneumoniae, 13883; read-out: K. pneumoniae 13883 MIC
[1] = system: VRE (E. faecium ATCC 700221) planktonic cells and biofilms; experiment: Calgary Biofilm Device (CBD) assay, MBC/MBEC; type: cell-based, Enterococcus faecium; details: Enterococcus; Table 8; c lowest concentration tested; read-out: VRE 700221 MBC
[2] = system: Staphylococcus epidermidis (ATCC 12228); experiment: MIC assay (broth microdilution, CLSI); type: cell-based; details: Staphylococcus epidermidis, ATCC12228
E. faecium 700221 (VRE) = experiment: MIC assay with Tiron or metal(II) cation co-treatment; type: cell-based, Enterococcus faecium; details: for MIC: Enterococcus faecium, VRE
MRSA BAA-1707 = experiment: MIC assay (broth microdilution, CLSI); details: Staphylococcus aureus, read-out: MIC, MRSA BAA-1707
A. baumannii 19606 = experiment: MIC assay (broth microdilution, CLSI); type: cell-based, Acinetobacter baumannii; details: Acinetobacter baumannii, 19606; read-out: A. baumannii 19606 MIC
MRSA BAA-44 = experiment: MIC assay (broth microdilution, CLSI); details: Staphylococcus aureus, read-out: MIC, MRSA BAA-44
S. epidermidis 12228 = experiment: MIC assay with Tiron or metal(II) cation co-treatment; type: cell-based, Staphylococcus epidermidis; details: for MIC: Staphylococcus epidermidis
human red blood cells = experiment: Hemolysis assay with red blood cells; details: human, 1 h, 200 μM, pH 7.2
Experimental: The hemolysis activities of select compounds of the invention were determined. […] The washing was repeated three times with the buffer. In 96-well plate, test compounds were added to the buffer from DMSO stocks. […] The plate was then incubated for 1 hour at 37° C. After incubation, the plate was centrifuged for 5 minutes at 3,500 rpm. Then 80 μL of the supernatant was transferred to another 96-well plate, and the optical density (OD) was read at 405 nm. DMSO served as the negative control (0% hemolysis), while Triton X served as the positive control (100% hemolysis). The percent of hemolysis was calculated as (OD405 of the compound−OD405 of DMSO)/(OD405 of Triton X−OD405 of the buffer).
The washing was repeated three times with the buffer. In 96-well plate, test compounds were added to the buffer from DMSO stocks. […] The plate was then incubated for 1 hour at 37° C. After incubation, the plate was centrifuged for 5 minutes at 3,500 rpm. Then 80 μL of the supernatant was transferred to another 96-well plate and the optical density (OD) was read at 405 nm. DMSO served as our negative control (0% hemolysis) while Triton X served as our positive control (100% hemolysis). The percent of hemolysis was calculated as (OD405 of the test compound−OD405 DMSO)/(OD405 Triton X−OD405 buffer) from three independent experiments.

[3] = system: MRSE (S. epidermidis ATCC 35984) planktonic cells and biofilms; experiment: Calgary Biofilm Device (CBD) assay, MBC/MBEC; type: cell-based, Staphylococcus epidermidis; details: Staphylococcus epidermidis; Table 8; read-out: MRSE 35984 MBC
[4] = system: MRSA-2 (methicillin-resistant Staphylococcus aureus clinical isolate); experiment: MIC assay (broth microdilution, CLSI); type: cell-based; details: Staphylococcus aureus, MRSA, read-out: MIC, MRSA-2
[5] = system: Enterococcus faecium (ATCC 700221), VRE; experiment: MIC assay (broth microdilution, CLSI); type: cell-based
[6] = system: MRSA-2 planktonic cells and biofilms; experiment: Calgary Biofilm Device (CBD) assay, MBC/MBEC; type: cell-based, Staphylococcus aureus; details: Staphylococcus aureus, MRSA
E. coli UAEC-1 = experiment: MIC assay (broth microdilution, CLSI); type: cell-based; details: Escherichia coli, UAEC1; read-out: E. coli UAEC-1 MIC
MRSA-2 = experiment: MIC assay with Tiron or metal(II) cation co-treatment; type: cell-based, Staphylococcus aureus; details: for MIC: Staphylococcus aureus
[7] = system: Staphylococcus epidermidis (ATCC 35984), MRSE; experiment: MIC assay (broth microdilution, CLSI); type: cell-based; details: Staphylococcus epidermidis
in vitro = type: cell-based; details: human
Experimental: The cytotoxicities of select compounds of the invention against HeLa cells were determined. HeLa cytotoxicity was assessed using the LDH release assay described by CYTOTOX96 (Promega G1780). HeLa cells were grown in Dulbecco's Modified Eagle Medium (DMEM; Gibco) supplemented with 10% Fetal Bovine Serum (FBS) at 37° C. with 5% CO2. […] Triton X-100 (at 2% v/v) was used as the positive control for maximum lactate dehydrogenate (LDH) activity in this assay (e.g., complete cell death), while “medium only” lanes served as negative control lanes (e.g., no cell death). DMSO was used as the vehicle control. […] Finally, Stop Solution (50 μL) was added to the incubating plates, and the absorbance was measured at 490 nm.
HeLa cytotoxicity was assessed using the LDH release assay described by CYTOTOX96 (Promega G1780). HeLa cells were grown in Dulbecco's Modified Eagle Medium (DMEM; Gibco) supplemented with 10% Fetal Bovine Serum (FBS) at 37° C. with 5% CO2. […] Triton X-100 (at 2% v/v) was used as the positive control for maximum lactate dehydrogenate (LDH) activity in this assay (e.g., complete cell death), while “medium only” lanes served as negative control lanes (e.g., no cell death). DMSO was used as our vehicle control. […] Finally, Stop Solution (50 μL) was added to the incubating plates and the absorbance was measured at 490 nm. Results are from three independent experiments (FIG. 19)

[8] = system: M. tuberculosis H37Ra (ATCC 25177); experiment: Mycobacterium tuberculosis MIC assay; type: cell-based; details: Table 7, read-out: MIC, M. tuberculosis H37Ra
Experimental: (§1) The culture was then diluted with fresh medium until an OD600 of 0.01 was reached. […] The final DMSO concentration was maintained at 0.5%. […] Three rows were reserved for each compound. […] OD600 absorbance was recorded using SPECTRAMAX M5 (Molecular Devices). Data obtained from three independent experiments were analyzed using Excel.
as §1, with “EXCEL.” for “Excel.”

[9] = Table 7, b lowest concentration tested, read-out: MIC, S. epidermidis 12228
[10] = E. faecium 700221, + loss, − increase of activity
[11] = S. epidermidis 12228, + loss, − increase of activity
[12] = Table 7, a midpoint of 2-fold range, b lowest concentration tested
[13] = Table 7, b lowest concentration tested, read-out: MIC, VRE 700221
[14] = Table 8, a/b 2-/4-fold range in independent experiments, read-out: MRSA-2 MBC
[15] = MRSA-2, + loss, − increase of activity
[16] = Table 7, read-out: MIC, MRSE 35984
[17] = Table 2A, read-out: MIC, Staphylococcus epidermidis (ATCC 12228)
[18] = Enterococcus faecium, Table 2A, read-out: MIC, Enterococcus faecium (ATCC 700221)
[19] = Table 2A, read-out: MIC, Staphylococcus epidermidis (ATCC 35984)

Row | SMILES | MIC (P. aeruginosa (PAO1)) [µM] | MIC (K. pneumoniae 13883) [µM] | MIC [2, 9] [µM] | MIC (MRSA BAA-1707) [µM] | MIC (A. baumannii 19606) [µM] | MIC (MRSA BAA-44) [µM] | % Hemolysis at 200 μM (human red blood cells) [%] | MBC [3] [µM] | MIC [4, 12] [µM] | MIC [5, 13] [µM] | MBC [6, 14] [µM] | MIC (E. coli UAEC-1) [µM] | MIC [7, 16] [µM] | MIC [2, 17] [µM] | % Hemolysis (200 μM) (human red blood cells) [%] | MIC ([4]; Table 2A) [µM] | MIC [5, 18] [µM] | MIC [7, 19] [µM] | MBC ([6]; Table 4, read-out: MBC, MRSA-2) [µM] | IC50 at 24 h (in vitro) [µM] | also measured
1 | Oc1ccc(Br)c2nc3cc(Br)c(Br)cc3nc12 [Compound 13] | > 100 | > 100 | 2.35 (≈ 1.02 µg/mL) | 0.56 (≈ 0.242 µg/mL) | > 100 | 1.56 (≈ 0.675 µg/mL) | ≤1 | > 200 | 1.56 (≈ 0.675 µg/mL) | 6.25 (≈ 2.71 µg/mL) | > 200 | > 100 | 3.13 (≈ 1.35 µg/mL) |  |  |  |  |  |  |  | MBC [1]: > 200 µM; Fold Δ (Cu^2+) (E. faecium 700221 (VRE); [10]): +64; Fold Δ (Tiron) (E. faecium 700221 (VRE); [10]): n.a. (insignificant changes in MIC values (≤2-fold changes)); MIC (E. faecium 700221 (VRE); E. faecium 700221, 200 μM CuSO4, read-out: MIC with Cu^2+): 25 µM; MIC (E. faecium 700221 (VRE); E. faecium 700221, 1 mM Tiron, read-out: MIC with Tiron): 0.39 µM; MIC (E. faecium 700221 (VRE); E. faecium 700221, no additive, read-out: MIC): 0.39 µM; Fold Δ (Cu^2+) (S. epidermidis 12228; [11]): +500; Fold Δ (Tiron) (S. epidermidis 12228; [11]): n.a. (insignificant changes in MIC values (≤2-fold changes)); MIC (S. epidermidis 12228; S. epidermidis 12228, 200 μM CuSO4, read-out: MIC with Cu^2+): 50 µM; MIC (S. epidermidis 12228; S. epidermidis 12228, 1 mM Tiron, read-out: MIC with Tiron): 0.1 µM; MIC (S. epidermidis 12228; S. epidermidis 12228, no additive, read-out: MIC): 0.1 µM; Fold Δ (Cu^2+) (MRSA-2; [15]): +8; Fold Δ (Fe^2+) (MRSA-2; [15]): +2; Fold Δ (Tiron) (MRSA-2; [15]): −125; MIC (MRSA-2; MRSA-2, 200 μM copper(II), read-out: MIC with Cu^2+): > 100 µM; MIC (MRSA-2; MRSA-2, 200 μM iron(II), read-out: MIC with Fe^2+): 25 µM; MIC (MRSA-2; MRSA-2, 1 mM Tiron, read-out: MIC with Tiron): 0.1 µM; MIC (MRSA-2; MRSA-2, no additive (Table 9), read-out: MIC): 12.5 µM
2 | COc1cccc2nc3cc(Cl)c(Cl)cc3nc12 [Compound 20, 7,8-Dichloro-1-methoxyphenazine] | > 100 | > 100 | > 100 |  | > 100 |  |  |  | > 100 | > 100 |  | > 100 | > 100 | > 100 | 1.5 | > 100 | > 100 | > 100 |  |  | 
3 | Oc1cccc2nc3cc(Cl)c(Cl)cc3nc12 [Compound 21] | > 100 | > 100 | > 100 |  | > 100 |  |  |  | > 100 | > 100 |  | > 100 | > 100 | > 100 | ≤1 | > 100 | > 100 | > 100 |  |  | 
4 | Oc1c(Br)cc(Br)c2nccnc12 [Compound 25] | > 100 |  | 18.8 (≈ 5.71 µg/mL) | 6.25 (≈ 1.9 µg/mL) | 6.25 (≈ 1.9 µg/mL) | 12.5 (≈ 3.8 µg/mL) | 1.8 |  | 25 (≈ 7.6 µg/mL) | 100 (≈ 30.4 µg/mL) | 1500 (≈ 456 µg/mL) | 12.5 (≈ 3.8 µg/mL) | 18.8 (≈ 5.71 µg/mL) | 12.5 to 25 (≈ 3.8 to 7.6 µg/mL) | 1.8 | 25 (≈ 7.6 µg/mL) | 100 (≈ 30.4 µg/mL) | 12.5 to 25 (≈ 3.8 to 7.6 µg/mL) | 1500 (≈ 456 µg/mL) | > 100 | 
5 | Cc1nc2c(Br)cc(Br)c(O)c2nc1C [Compound 27] | > 100 | > 100 | 12.5 (≈ 4.15 µg/mL) |  | > 100 | 6.25 (≈ 2.07 µg/mL) | ≤1 |  |  | 25 (≈ 8.3 µg/mL) | 125 (≈ 41.5 µg/mL) | > 100 |  | 12.5 (≈ 4.15 µg/mL) | ≤1 |  | 25 (≈ 8.3 µg/mL) |  | 125 (≈ 41.5 µg/mL) |  | 
6 | Cc1nc2c(I)cc(I)c(O)c2nc1C [Compound 28] | > 100 | > 100 | 2.35 (≈ 1 µg/mL) |  | > 100 |  | 1.2 | 23.5 (≈ 10 µg/mL) |  | 6.25 (≈ 2.66 µg/mL) | 93.8 (≈ 40 µg/mL) | > 100 |  | 1.56 to 3.13 (≈ 0.665 to 1.33 µg/mL) | 1.2 |  | 6.25 (≈ 2.66 µg/mL) |  | 93.8 (≈ 40 µg/mL) | > 100 | MIC ([8]; Mycobacterium tuberculosis): > 50 µM; MIC [8]: >50 µM
